Data taken from US6858591B2, “Antibiotic AA 896 analogs” (Wyeth Holdings Corporation, priority 2001, dated 2005).
Values after ≈ are worked out from the molar mass of the structure shown. Read-outs that look alike come from different tables or passages of the source.

Legend:
Test in all cases: In vitro MIC, broth dilution
Type in all cases: cell-based
[1] = test system: CNS GC 4547
Procedure, shortened: (§1)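 Broth dilution per NCCLS M7-A recommendations in Mueller-Hinton II medium, inoculum 5×10^5 CFU/ml, antibiotic range 64-0.06 μg/ml. Plates incubated 18 hours at 35° C in ambient air; MIC taken as lowest concentration inhibiting growth.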

[2] = test system: E. faecalis GC 4555; settings: Enterococcus faecalis, GC4555; E. faecalis GC 4555; read-out: MIC
Procedure, shortened: as §1

[3] = test system: CNS GC 4537
Procedure, shortened: as §1

[4] = test system: CNS GC 4538
Procedure, shortened: as §1

[5] = test system: S. aureus GC 4536; settings: Staphylococcus aureus, GC4536; S. aureus GC 4536; read-out: MIC
Procedure, shortened: as §1

[6] = test system: E. faecalis GC 842; settings: Enterococcus faecalis, GC842; E. faecalis GC 842; read-out: MIC
Procedure, shortened: as §1

[7] = test system: E. faecalis GC 2242; settings: Enterococcus faecalis, GC2242; E. faecalis GC 2242; read-out: MIC
Procedure, shortened: as §1

[8] = test system: S. aureus GC 2216; settings: Staphylococcus aureus, GC2216; S. aureus GC 2216; read-out: MIC
Procedure, shortened: as §1

[9] = test system: S. aureus GC 1131; settings: Staphylococcus aureus, GC1131; S. aureus GC 1131; read-out: MIC
Procedure, shortened: as §1

[10] = test system: E. coli GC 2203; settings: Escherichia coli, GC2203; E. coli GC 2203; read-out: MIC
[11] = test system: P. aeruginosa GC 2214; settings: Pseudomonas aeruginosa, GC2214; P. aeruginosa GC 2214; read-out: MIC
[12] = test system: C. albicans GC 3066; settings: Candida albicans, GC3066; C. albicans GC 3066; read-out: MIC
[13] = test system: E. coli GC 3226; settings: Escherichia coli, GC3226; E. coli GC 3226; read-out: MIC
[14] = test system: E. coli GC 4560; settings: Escherichia coli, GC4560; E. coli GC 4560; read-out: MIC
[15] = test system: P. aeruginosa GC 4532; settings: Pseudomonas aeruginosa, GC4532; P. aeruginosa GC 4532; read-out: MIC
[16] = test system: E. coli GC 4559; settings: Escherichia coli, GC4559; E. coli GC 4559; read-out: MIC
[17] = test system: K. pneumoniae GC 4534; settings: Klebsiella pneumoniae, GC4534; K. pneumoniae GC 4534; read-out: MIC
[18] = test system: M. morganii GC 4531; settings: Morganella morganii, GC4531; M. morganii GC 4531; read-out: MIC
[19] = test system: E. cloacae GC 3783; settings: Enterobacter cloacae, GC3783; E. cloacae GC 3783; read-out: MIC
[20] = test system: S. marcescens GC 4077; settings: Serratia marcescens, GC4077; S. marcescens GC 4077; read-out: MIC

Structure (SMILES) | MIC [2] [µg/mL] | MIC [5] [µg/mL] | MIC [6] [µg/mL] | MIC [7] [µg/mL] | MIC [8] [µg/mL] | MIC [9] [µg/mL] | MIC [10] [µg/mL] | MIC [11] [µg/mL] | MIC [12] [µg/mL] | MIC [13] [µg/mL] | MIC [14] [µg/mL] | MIC [15] [µg/mL] | MIC [16] [µg/mL] | MIC [17] [µg/mL] | MIC [18] [µg/mL] | MIC [19] [µg/mL] | MIC [20] [µg/mL] | MIC ([1]; CNS GC 4547, read-out: MIC) [µg/mL] | MIC ([3]; CNS GC 4537, read-out: MIC) [µg/mL] | MIC ([4]; CNS GC 4538, read-out: MIC) [µg/mL] | also measured
CCOC(=O)C(NCCCNC(=O)[C@@H](NC(=O)[C@H](CCCNC(=N)N[N+](=O)[O-])NC(=O)N[C@H](C(=O)OCc1ccccc1)C(C)C)C(C)O)C(O)[C@H]1O[C@@H](n2ccc(=O)[nH]c2=O)[C@H](OC(C)=O)[C@@H]1OC(C)=O (stereo partly drawn) [Example 35] | > 128 | > 128 | > 128 | 128 (≈ 125 µM) | > 128 | > 128 | > 128 | 128 (≈ 125 µM) | 128 (≈ 125 µM) | > 128 | > 128 | 128 (≈ 125 µM) | > 128 | > 128 | 128 (≈ 125 µM) | > 128 | > 128 | – | – | – | MIC [1]: > 128 µg/mL; MIC [3]: > 128 µg/mL; MIC [4]: > 128 µg/mL
CCOC(=O)C(NCCCNC(=O)[C@@H](NC(=O)OCc1ccccc1)[C@@H](O)C(C)C)[C@@H](O)[C@H]1O[C@@H](n2ccc(=O)[nH]c2=O)[C@H](OC(C)=O)[C@@H]1OC(C)=O (stereo partly drawn) [Example 36, Ethyl (5S)-12-[(R)-[(2R,3R,4R,5R)-3,4-bis(acetyloxy)-5-(2,4-dioxo-3,4-dihydro-1(2H)-pyrimidinyl)tetrahydro-2-furanyl](hydroxy)methyl]-5-[(1S)-1-hydroxy-2-methylpropyl]-3,6-dioxo-1-phenyl-2-oxa-4,7,11-triazatridecan-13-oate] | > 128 | > 128 | > 128 | 128 (≈ 171 µM) | > 128 | > 128 | > 128 | 128 (≈ 171 µM) | 128 (≈ 171 µM) | > 128 | > 128 | 128 (≈ 171 µM) | > 128 | > 128 | 128 (≈ 171 µM) | > 128 | > 128 | > 128 | > 128 | > 128 | –
CCOC(=O)C(NCCCNC(=O)[C@@H](NC(=O)[C@H](CCCNC(=N)N[N+](=O)O)NC(=O)N[C@H](C(=O)OCc1ccccc1)C(C)C)[C@@H](O)C(C)C)C(O)[C@H]1O[C@@H](n2ccc(=O)[nH]c2=O)[C@H](OC(C)=O)[C@@H]1OC(C)=O (stereo partly drawn) [Example 37, 16-Benzyl 2-ethyl (1R,9S,12S,16S)-1-[(2R,3R,4R,5R)-3,4-bis(acetyloxy)-5-(2,4-dioxo-3,4-dihydro-1(2H)-pyrimidinyl)tetrahydro-2-furanyl]-12-(3-{[(2,2-dioxido-2lambda˜1˜-diazanyl)(imino)methyl]amino}propyl)-1-hydroxy-9-[(1S)-hydroxy-2-methylpropyl]-17-methyl-8,11,14-trioxo-3,7,10,13,15-pentaazaoctadecane-2,16-dicarboxylate] | > 128 | > 128 | > 128 | 128 | > 128 | > 128 | > 128 | > 128 | > 128 | > 128 | > 128 | > 128 | > 128 | > 128 | > 128 | > 128 | > 128 | – | – | – | MIC [1]: > 128 µg/mL; MIC [3]: > 128 µg/mL; MIC [4]: > 128 µg/mL
CCOC(=O)C(NCCCNC(=O)[C@H](CC(C)C)NC(=O)OCc1ccccc1)C(OC(C)=O)[C@H]1O[C@H](n2ccc(=O)[nH]c2=O)[C@H](OC(C)=O)[C@@H]1OC(C)=O (stereo partly drawn) [Example 38a, Ethyl (5S)-12-{(R)-(acetyloxy)[(2R,3R,4R,5S)-3,4-bis(acetyloxy)-5-(2,4-dioxo-3,4-dihydro-1(2H)-pyrimidinyl)tetrahydro-2-furanyl]methyl}-5-isobutyl-3,6-dioxo-1-phenyl-2-oxa-4,7,11-triazatridecan-13-oate] | > 128 | > 128 | > 128 | > 128 | > 128 | > 128 | > 128 | > 128 | > 128 | > 128 | > 128 | > 128 | > 128 | > 128 | > 128 | > 128 | > 128 | > 128 | > 128 | > 128 | –
CCOC(=O)C(NCCCNC(=O)[C@H](CC(C)C)NC(=O)OCc1ccccc1)C(OC(C)=O)[C@H]1O[C@@H](n2ccc(=O)[nH]c2=O)[C@H](OC(C)=O)[C@@H]1OC(C)=O (stereo partly drawn) [Example 38b, Ethyl (5S)-12-{(R)-(acetyloxy)[(2R,3R,4R,5R)-3,4-bis(acetyloxy)-5-(2,4-dioxo-3,4-dihydro-1(2H)-pyrimidinyl)tetrahydro-2-furanyl]methyl}-5-isobutyl-3,6-dioxo-1-phenyl-2-oxa-4,7,11-triazatridecan-13-oate] | > 128 | > 128 | > 128 | > 128 | > 128 | > 128 | > 128 | > 128 | > 128 | > 128 | > 128 | > 128 | > 128 | > 128 | > 128 | > 128 | > 128 | > 128 | > 128 | > 128 | –
CCOC(=O)C(NCCCNC(=O)[C@@H](N)CC(C)C)[C@@H](OC(C)=O)[C@H]1O[C@H](n2ccc(=O)[nH]c2=O)[C@H](OC(C)=O)[C@@H]1OC(C)=O (stereo partly drawn) [Example 39, Ethyl (3R)-3-(acetyloxy)-2-[(3-{[(2S)-2-amino-4-methylpentanoyl]amino}propyl)amino]-3-[(2R,3R,4R,5S)-3,4-bis(acetyloxy)-5-(2,4-dioxo-3,4-dihydro-1(2H)-pyrimidinyl)tetrahydro-2-furanyl]propanoate] | > 128 | > 128 | > 128 | 128 (≈ 199 µM) | > 128 | > 128 | > 128 | 128 (≈ 199 µM) | 128 (≈ 199 µM) | > 128 | > 128 | 128 (≈ 199 µM) | > 128 | > 128 | 128 (≈ 199 µM) | > 128 | 128 (≈ 199 µM) | > 128 | > 128 | > 128 | –
